US20050002922A1, “Use of secretin and secretin analogs to treat affective disorders” (priority 2003, published 2005)

Columns and labels:
Fos protein expression = experiment: Brain gene expression measured by Fos protein expression; format: in vivo, rat
[1] = test system: rats (baseline acoustic startle); conditions: rat, in vivo, ip
Method: A total of 72 male Sprague-Dawley rats (Charles River, Portage, Mich.) weighing 350-450 g were used. Animals were maintained on a 12:12 hour light-dark cycle (lights on at 0700) with food and water continuously available. All rats were housed in group cages of four rats each in a temperature-controlled (24° C.) animal colony.
Animals were trained and tested in 8×15×15 cm Plexiglas® and wire-mesh cages. Each cage floor consisted of four 6.0 mm diameter stainless-steel bars spaced 18 mm apart. Each cage was suspended between compression springs within a steel frame and located within a custom-designed 90×70×70 cm ventilated sound-attenuating chamber. Background noise (60 dB wide-band) was provided by a General Radio Type 1390-B noise generator (Concord, Mass.) and delivered through high-frequency speakers (Radio Shack Supertweeter; Tandy, Fort Worth, Tex.) located 5 cm in front of each cage. Sound level measurements (sound pressure level) were made with a Bruel & Kjaer (Marlborough, Mass.) model 2235 sound-level meter (A scale; random input) with the microphone (Type 4176) located 7 cm from the center of the speaker (approximating the distance of the rat's ear from the speaker). […]

[2] = test system: rats (spatial learning and memory)
Source text: The M swim maze was developed to test spatial learning and memory (e.g., functional memory). The animal has no visual or spatial cues in the pool and must rely on extra-maze cues (e.g., light setup outside the pool that can be seen by the swimming animal). Through a series of trials a rat develops “place learning” or knowledge about the position of the escape platform based upon the extra-maze cues. The platform can be moved to a different arm of the M configuration each day, combining spatial memory with working memory. This paradigm involves extinction of the prior memory and resolution of a new spatial problem.
Test Animals. A total of 40 male rats were used.
Behavioral Procedures and Data Analysis. Rats (10/group) were treated by tail vein injection with vehicle, 0.4 μg/kg/day, 4.0 μg/kg/day, and 40 μg/kg/day secretin on post natal day 25 through postnatal day 70 (45 days). Learning and memory was evaluated in a water M-maze. The evaluation consisted of 10 trials/day for each animal on 4 successive days to assess short-term memory. The goal was to escape from the maze via a platform located on the lighted arm of an M-shaped maze. After placement of the animal in the central arm of the M-shaped maze, the goal side was varied for each animal at each trial according to a predetermined computer generated sequence. The same animals were also tested 5 days after the initial testing to assess long-term memory. On that day each animal were allowed 10 trials in the maze and time to escape was measured. Significance was calculated versus the control group value for the same day of testing using a T-test.

[3] = test system: rats (fear-potentiated startle); experiment: Fear-potentiated startle paradigm in rats; format: in vivo, rat
Method: The conditioned stimulus (CS) was a 3.7 second light (80 lux) produced by an 8 W fluorescent bulb (100 msecond rise time) located 10 cm behind each cage. Luminosity was measured using a VWR light meter (Atlanta, Ga.). The US was a 0.5 second shock, delivered to the floorbars and produced by a shock generator (SGS-004; LeHigh Valley, Beltsville, Md.). Shock intensities (measured as in Cassella et al., Physiol Behav 36:1187-91, 1986) were 0.4 mA. The presentation and sequencing of all stimuli were under the control of the Macintosh G3 computer using custom-designed software (The Experimenter; Glassbeads Inc., Newton, Conn.).
The experiment was run in four replications.
Fear conditioning. On each of the next 2 days, rats were returned to the test chambers and 5 minutes later given the first of 10 light-footshock pairings. The 0.4 mA 0.5 second shock was delivered during the last 0.5 second of the 3.7 second light. The average intertrial interval (ITI) was 4 minutes (range, 3-5 minutes).

effect of higher doses on baseline startle [1]: tended to suppress baseline startle | ability to learn and remember a spatial associative memory task ([2]; rat, in vivo, iv): does not impair
Substance: secretin
dose giving peak change in Fos protein expression (Fos protein expression; i.p. or i.v.): 40 µg/kg | minimum dose to detect significant changes in brain gene expression (Fos protein) (Fos protein expression; i.v. or i.p.): 4 µg/kg | learning performance in water M-maze relative to controls ([2]; rats, 0.4 or 4.0 μg/kg/day i.v., after 4 training days, maintained after 5 day rest): improved in learning performance | minimum dose that improves functional memory in M swim maze ([2]; rats, i.v.): 0.4 µg/kg | minimum dose possessing anxiolytic properties in fear-potentiated startle paradigm ([3]; i.p.): 3 µg/kg | effect on expression of fear-potentiated startle ([3]; i.p. 1-100 μg/kg immediately prior to testing): dose dependently impaired expression of fear-potentiated startle | dose giving greatest impairment of fear-potentiated startle ([3]; i.p. immediately prior to testing): 10 µg/kg
